Where “and” joins values, the source holds several entries; their conditions need not be identical. Equal values may be shown once. Read-outs that look alike come from different tables or passages of the source.
How the values were obtained:
[1] = target: T1, human σ1R (Homo sapiens, UniProt Q99720); assay: hσ1R competitive radioligand binding assay; conditions: for Selectivity Index of Rat σ2R/Human σ1R: Ki rat σ2R/Ki hσ1R
T1 construct: expressed in transfected cells; host or cells: HEK293 (provided by Olivier Soriani, Université de Nice Sophia-Antipolis)
T1 sequence (Q99720 whole entry): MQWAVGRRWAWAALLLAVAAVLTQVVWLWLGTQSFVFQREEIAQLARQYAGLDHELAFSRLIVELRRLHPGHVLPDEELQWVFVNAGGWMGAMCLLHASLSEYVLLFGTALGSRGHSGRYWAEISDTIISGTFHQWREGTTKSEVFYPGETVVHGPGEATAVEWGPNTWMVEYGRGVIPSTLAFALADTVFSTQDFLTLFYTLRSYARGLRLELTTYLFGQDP
Protocol: The hσ1R competitive binding assay was performed as previously reported. In brief, radioligand competition experiments were performed using preparations from HEK293 cells stably transfected with human σ1R cells (provided by Olivier Soriani, Université de Nice Sophia-Antipolis, Nice, France). The binding of the σ1R specific radioligand (+)-[^3H]pentazocine (1.051 TBq/mmol; PerkinElmer LAS GmbH, Rodgay, Germany) was measured at equilibrium in the presence of the test compounds at different concentrations (10 mM stock solutions in DMSO; final concentrations 10^−5–10^−11 M, 0.1 % DMSO) in TRIS buffer at pH 7.4 (50 mM TRIS-HCl, 120 mM NaCl, 5 mM KCl, 2 mM CaCl2, 1 mM MgCl2). Total binding was measured without the addition of a competitor, and non-specific binding was measured with 10 µM haloperidol as the competitor. The vials were incubated at room temperature (rt) (~21 °C) at 300 rpm. The incubation was terminated after 60 min by vacuum filtration using Whatman® GF/B glass-fiber filtermats (#FPD-100, Brandel Inc., Gaithersburg, MD, USA), soaked with freshly prepared 0.3% polyethyleneimine, using a 48-well harvester (Brandel Inc., Gaithersburg, MD, USA). Filters were washed four times with cold buffer (50 mM TRIS-HCl, pH 7.4 at 4 °C) and placed in scintillation vials. In total, 3 mL of a liquid scintillation cocktail (Ultima Gold TM; PerkinElmer, Waltham, MA, USA) was filled in each vial, and the vials were shaken at rt at 375 rpm for 120 min. Filter-bound radioactivity was measured in a Hidex 600 SL liquid scintillation counter (Hidex, Turku, Finnland). By performing nonlinear regression analysis of the binding curves (GraphPad Prism 3.0, GraphPad Software, Inc., La Jolla, CA, USA), the IC50 values were obtained, and the equilibrium inhibition constants Ki were calculated according to the Cheng–Prusoff equation [36], using the in-house determined equilibrium dissociation constant KD of 33 nM (+)-[^3H]pentazocine. Each test compound was measured in 2–3 independent experiments, each performed in triplicate.

[2] = target: T2, rat σ2R (Rattus norvegicus, UniProt Q5U3Y7); assay: σ2R competitive radioligand binding assay (rat liver membranes)
T2 construct: The thawed membrane preparation of rat liver (about 100 µg of protein) was incubated; from tissue; host or cells: rat liver membranes
T2 sequence (Q5U3Y7 1-176): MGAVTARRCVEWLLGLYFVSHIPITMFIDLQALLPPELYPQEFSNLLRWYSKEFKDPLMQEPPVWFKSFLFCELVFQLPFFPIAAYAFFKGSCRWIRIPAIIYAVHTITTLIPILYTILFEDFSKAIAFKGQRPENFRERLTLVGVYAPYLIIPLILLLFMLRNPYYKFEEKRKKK
Protocol: Two rat livers were cut into small pieces and homogenized using a potter [Elvehjem Potter (B. Braun Biotech International, Melsungen, Germany); 500–800 rpm, 10 up-and-down strokes] in 6 volumes of cold 0.32 M sucrose. The suspension was centrifuged at 1200× g for 10 min at 4 °C. The supernatant was separated and centrifuged at 31,000× g for 20 min at 4 °C. The pellet was resuspended in 5–6 volumes of buffer (50 mM TRIS, pH 8.0) and incubated at rt for 30 min. After the incubation, the suspension was centrifuged again at 31,000× g for 20 min at 4 °C. The final pellet was resuspended in 5–6 volumes of buffer and stored at −80 °C in 1.5 mL portions containing about 2 mg of protein/mL.
The stock solution of the respective test compound (10 mM in DMSO) was diluted with the assay buffer to obtain the required test solutions for the assay. All binding experiments were carried out in duplicates in 96-well multiplates. The concentrations given are the final concentrations in the assay. The assays were performed with the radioligand [^3H]-DTG (specific activity 50 Ci/mmol; ARC, St. Louis, MO, USA). The thawed membrane preparation of rat liver (about 100 µg of protein) was incubated with various concentrations of the test compound, 3 nM [^3H]-DTG, and a buffer containing (+)-pentazocine (500 nM (+)-pentazocine in 50 mM TRIS, pH 8.0) at rt. The non-specific binding was determined with 10 μM non-labeled DTG. The Kd value of [^3H]-DTG is 17.9 nM [43].
Generally, the assays were performed by adding 50 µL of the respective assay buffer and 50 µL of the test compound solution in various concentrations (10^−5, 10^−6, 10^−7, 10^−8, 10^−9, and 10^−10 mol/L), 50 µL of the corresponding radioligand solution, and 50 µL of the respective receptor preparation into each well of the multiplate (total volume 200 µL). The receptor preparation was added last. During the incubation, the multiplates were shaken at a speed of 500−600 rpm at rt. The assays were terminated after 120 min by rapid filtration using the harvester (MicroBeta FilterMate 96; PerkinElmer LAS, Rodgau, Germany) equipped with filtermats presoaked in 0.5% aqueous polyethylenimine solution for 2 h at rt before use. During the filtration, each well was washed five times with 300 µL of water. Subsequently, the filtermats were dried at 95 °C. The solid scintillator (Meltilex; PerkinElmer LAS, Rodgau, Germany) was melted on the dried filtermats at a temperature of 95 °C for 5 min. After solidifying the scintillator at rt, the trapped radioactivity in the filtermats was measured with the scintillation analyzer (MicroBeta Trilux; PerkinElmer LAS, Rodgau, Germany). Each position on the filtermat corresponds to one well of the multiplate and was measured for 5 min with the [^3H]-counting protocol. The overall counting efficiency was 20%. The IC50 values were calculated with the program GraphPad Prism® 3.0 (GraphPad Software, San Diego, CA, USA) by nonlinear regression analysis. Subsequently, the IC50 values were transformed into Ki values using the equation of Cheng and Prusoff. The Ki values are given as the mean value ± SEM from three independent experiments.

[3] = system: EeAChE; conditions: cited from earlier work
[4] = system: eqBuChE; conditions: cited from earlier work; for IC50: read-out: IC50 BuChE
[5] = system: human MAO A; conditions: cited from earlier work
[6] = system: human MAO B; set-up: method as in earlier work; conditions: cited from earlier work
[7] = target: gpσ1R (Cavia porcellus, UniProt Q60492); assay: gpσ1R affinity; format: binding
Chain of gpσ1R (Q60492 whole entry): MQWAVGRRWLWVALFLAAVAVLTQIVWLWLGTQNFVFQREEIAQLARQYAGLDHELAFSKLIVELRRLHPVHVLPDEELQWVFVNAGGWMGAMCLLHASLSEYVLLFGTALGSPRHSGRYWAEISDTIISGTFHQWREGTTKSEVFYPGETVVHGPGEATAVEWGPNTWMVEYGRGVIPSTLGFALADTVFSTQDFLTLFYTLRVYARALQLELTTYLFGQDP

[8] = membrane preparations of HEK-293 cells stably transfected with hσ1R, radioligand (+)-[3H]pentazocine, two experiments: mean (individual values), three or more: mean ± SD, read-out: Ki Human σ1R
[9] = rat liver membrane preparations, radioligand [3H]ditolylguanidine, (+)-pentazocine to mask σ1R, mean ± SEM, read-out: Ki Rat σ2R

SMILES	Ki [1]	Selectivity Index of Rat σ2R/Human σ1R [1]	Ki [2] [µM]	IC50 [3] [µM]	IC50 BuChE ([4]; eqBuChE)	IC50 MAO A [5]	IC50 MAO B [6]	IC50 ([4]; eqBuChE) [µM]	Ki [1, 8]	Ki [2, 9] [µM]	fold higher affinity for hσ1R than the standards NE-100 and PB2 ([1]; compared with the standards) [fold]	Ki [7] [µM]	IC50 ([4]; as given in the text) [µM]	IC50 [5] [µM]	fold more affine for rat σ2R than for hσ1R ([2]; Ki hσ1R vs Ki rat σ2R) [fold]
C#CCNc1nc(NC2CCN(Cc3ccccc3)CC2)c(C#N)cc1C#N [Compound 1]	0.0292 µM	5.9	0.173	0.53 ± 0.07	n.i.	n.i.	n.i.	–	–	–	–	–	–	–	–
C#CCNc1nc(NCCC2CCN(Cc3ccccc3)CC2)c(C#N)cc1C#N [Compound 2]	0.00757 ± 0.00059 µM	5.6	0.042 ± 0.008	0.016 ± 0.002	n.i.	n.i.	n.i.	–	–	–	–	–	–	–	–
C#CCNc1nc(NCCCC2CCN(Cc3ccccc3)CC2)c(C#N)cc1C#N [Compound 3]	~0.003 µM and 0.00297 µM	13	0.037 ± 0.005	0.0047 ± 0.0005	–	n.i.	n.i.	2.03 ± 0.37	–	–	–	–	–	–	–
C#CCNc1nc(NCCCCC2CCN(Cc3ccccc3)CC2)c(C#N)cc1C#N [Compound 4]	–	41	–	0.0013 ± 0.0003	–	n.i.	n.i.	0.53 ± 0.06	0.00397 ± 0.00066 µM	0.163 ± 0.05	–	–	–	–	–
C#CCN(C)c1nc(NCCC2CCN(Cc3ccccc3)CC2)c(C#N)cc1C#N [Compound 5, 2-{[2-(1-benzylpiperidin-4-yl)ethyl]amino}-6-[methyl(prop-2-yn-1-yl)amino]pyridine-3,5-dicarbonitrile]	0.00145 ± 0.00043 µM	270	0.389	0.013	–	n.i.	n.i.	–	–	–	~1.3	0.0029	3.1	–	–
C#CCN(C)c1nc(NCCCC2CCN(Cc3ccccc3)CC2)c(C#N)cc1C#N [Compound 6]	~0.003 µM and 0.00305 µM	42	0.129 ± 0.026	0.0062 ± 0.0014	–	–	n.i.	1.12 ± 0.16	–	–	–	–	–	6.11 ± 1.4	–
C#CCN(C)c1nc(NCCCCC2CCN(Cc3ccccc3)CC2)c(C#N)cc1C#N [Compound 7]	–	–	–	0.0011 ± 0.0003	–	–	n.i.	0.6 ± 0.08	~0.003 µM and 0.00309 µM	0.288	–	–	–	–	–
C#CCNc1nc(NC2CCN(Cc3ccccc3)CC2)c(C#N)c(-c2ccccc2)c1C#N [Compound 8]	0.0273 µM	5.2	0.141	4 ± 0.1	n.i.	–	n.i.	–	–	–	–	–	–	0.025 ± 0.001	–
C#CCNc1nc(NCCCC2CCN(Cc3ccccc3)CC2)c(C#N)c(-c2ccccc2)c1C#N [Compound 9]	0.00745 ± 0.00432 µM	14	0.104 ± 0.022	0.019 ± 0.005	n.i.	n.i.	n.i.	–	–	–	–	–	–	–	–
C#CCNc1nc(NCCCCC2CCN(Cc3ccccc3)CC2)c(C#N)c(-c2ccccc2)c1C#N [Compound 10]	–	2.5	–	0.0017 ± 0.0003	–	n.i.	n.i.	0.84 ± 0.1	0.0154 µM	0.039	–	–	–	–	–
C#CCN(C)c1nc(NCC2CCN(Cc3ccccc3)CC2)c(C#N)c(-c2ccccc2)c1C#N [Compound 11, 2-{[(1-benzylpiperidin-4-yl)methyl]amino}-6-[methyl(prop-2-yn-1-yl)amino]-4-phenylpyridine-3,5-dicarbonitrile]	0.119 µM	0.46	0.055	0.27 ± 0.052	–	n.i.	n.i.	5 ± 0.7	–	–	–	–	–	–	2
C#CCN(C)c1nc(NCCCC2CCN(Cc3ccccc3)CC2)c(C#N)c(-c2ccccc2)c1C#N [Compound 12]	0.0109 ± 0.0019 µM	36	0.393	0.014 ± 0.001	–	n.i.	n.i.	0.23 ± 0.03	–	–	–	–	–	–	–

— PMC11818082, “2-{N-[ω-(1-Benzylpiperidin-4-yl)alkyl]amino}-6-[(prop-2-yn-1-yl)amino]pyridine-3,5-dicarbonitriles Showing High Affinity for σ1/2 Receptors” (International Journal of Molecular Sciences, 2025)
